For the test, the system named is optogenetically induced ventral hippocampal seizures in rats. The conditions noted are these: same animals awake and under dexmedetomidine sedation.

The values that follow come from patent US20220408703A1, “IMAGING INDIVIDUAL HIPPOCAMPAL SEIZURES AND THE LONG-TERM IMPACT OF REPEATED SEIZURES” (The Board of Trustees of the Leland Stanford Junior …, priority 2019, published 2022).

Molecules are shown by their SMILES.

Text: (A,B) Ventral hippocampal LFP recordings from the same animal and seizures induced when awake and under sedation. Red arrow indicates large amplitude spike onset, and insets i-iii) are magnified components of those seizures. Blue bar indicates time of optogenetic stimulation (40 Hz with 7.5 ms pulses) (C) Another set of electrophysiological recordings from a different animal in the awake and sedated state. […] Each line represents a single animal.
The afterdischarge threshold was first evaluated for each individual animal by gradually increasing stimulation intensity in a step-wise manner to drive electrographic seizures in the absence of behavioral seizures as assessed using the Racine scale. Starting with a 10 s train of 40 Hz stimulation with a pulse width of 7.5 ms at 1 mW, the power was increased 1 mW at a time with an interstimulus interval (ISI) of 1 min up to a maximum of 20 mW. If no afterdischarges were observed, the duration was increased by 2.5 s and power was reset to 1 mW.
Simultaneous LFP-ofMRI Data Acquisition to assess ventral hippocampal connectivity. To assess ventral hippocampal connectivity, CAMKIIa cells in ventral hippocampus were stimulated at 10 Hz using optogenetic stimulation and assessed using simultaneous LFP-fMRI. Data acquisition was performed using the 7T horizontal-bore system (Bruker BioSpec 70/30) at the Stanford Center for Innovation in In-Vivo Imaging (SCi3). […] A single bolus of Feraheme (15 mg/kg, i.v.) was used for cerebral blood volume (CBV) weighted imaging for the enhanced contrast to noise ratio (Mandeville et al., 1998) and microvascular sensitivity (Zhao et al., 2006) that this technique offers in comparison to BOLD fMRI. fMRI acquisition was carried out approximately 15 min post contrast agent injection using a 4-shot segmented spiral readout with the following acquisition parameters: TR=0.75 ms, TE=9 ms, flip angle=30, field-of-view=32×32 mm, matrix=70×70, slice thickness=0.6 mm, number of slices=30, number of repetitions=130, number of dummy scans=4. […]

For `Cc1cccc([C@H](C)c2cnc[nH]2)c1C` [dexmedetomidine], the “proportion of stimulations resulting in afterdischarges, awake vs sedated” value (40 Hz, 7.5 ms pulses, FIG. 10D) is listed as “No differences”. Under “FIG. 10E”, the “large amplitude spike onset, awake vs sedated” value is recorded as “No differences”. Further, the “afterdischarge duration, sedated vs awake” value (FIG. 10F) is on record as “did not result in shorter afterdischarges”.
